Data set [1] in a line: Cytotoxicity against mammalian cells (MTT). The following applies: mouse, NCTC clone L929 cells (murine conjunctive cells). The data set is classed as cell-based. On the procedure: The optical density was determined using FilterMax F5 (Molecular Devices) at 570 nm. We calculated the selectivity index (SI) values using the following equation: CC50 against NCTC cells/IC50 against amastigotes.

In data set [2] the test system is amastigote forms of T. cruzi. The experiment in a line: Activity against amastigote forms of T. cruzi in infected macrophages. The data set is classed as cell-based, Trypanosoma cruzi. Particulars: for SI: selectivity index (ratio CC50/IC50): CC50 against NCTC cells/IC50 against amastigotes. On the procedure: To perform the experiments, peritoneal macrophages from BALB/c mice were infected with trypomastigotes forms of T. cruzi. The macrophages obtained from the peritoneal cavity of BALB/c mice were seeded on a 16-well chamber slide (NUNC plate, Merck; 1 × 10^5/well) and incubated for 24 h at 37 °C in a 5% CO2-humidified incubator. The trypomastigotes LLC-MK2 were counted and used to infect the macrophages (parasite:macrophage ratio = 10:1). After 2 h incubation at 37 °C in a 5% CO2-humidified incubator, free parasites were removed by 1× washing with the medium. […] Benznidazole was used as the standard drug. At the end of the assay, slides were fixed with MeOH, stained with Giemsa, and counted using light microscopy. The IC50 values were calculated as previously reported.

The test system of the next data set is NCTC cells-clone L929. The arrangement: method as in PMID 28864277, PMID 31103897, PMID 33047947. Particulars: read-out: CC50, 50% cytotoxic concentration in NCTC cells (ATCC, clone 929); compounds 9–33 and 36–50; ref [8],[10],[26]; cited from earlier work.
The test system of data set [3] is amastigote forms of T. cruzi. The arrangement: method as in PMID 28864277, PMID 31103897, PMID 33047947. Particulars: read-out: IC50, 50% inhibitory concentration against amastigote forms of T. cruzi; intracellular amastigotes; compounds 9–33 and 36–50; ref [8],[10],[26]; cited from earlier work.
Setting [4] is: Trypanosoma cruzi, Macrophage, -log IC50 against amastigotes, Table 1 and Figure 7, read-out: pIC50 Experimental (converted).
Setting [5] is: Trypanosoma cruzi, Peritoneal macrophage, in Mus musculus, 48 h, read-out: IC50, 50% inhibitory concentration against amastigote forms of T. cruzi, intracellular amastigotes in BALB/c peritoneal macrophages, 48 h, 30 to […].
The mark [6] stands for this setting: Trypanosoma cruzi, Macrophage, Table S2, -log IC50, supplement numbering, read-out: pIC50 (converted).

Structures are written as SMILES. Like-named read-outs stand apart in the source and are kept apart here.

`O=C(Cn1ccnc1[N+](=O)[O-])NCc1ccccc1` [Bzd, benznidazole, reference compound] gave a CC50 at 48 h in data set [1] of 190 ± 13.5 µM. Further, the “SI: selectivity index (ratio CC50/IC50)” value in data set [2] is 34.5. The IC50 was 5.5 µM in data set [2] (setting [4]) and 5.5 ± 1.4 µM in data set [2] (setting [5]).
Molecule `C=CCc1ccc(Oc2cc([C@@H](O)C=C)cc(OC)c2O)c(OC)c1` [Compound 3, 1-[(7S)-hydroxy-8-propenyl]-3-[3′-methoxy-1′-(8′-propenyl)-phenoxy]-4-hydroxy-5-methoxybenzene] had a CC50 at 48 h in data set [1] greater than 200 µM. For the same molecule, the IC50 in data set [2] (setting [4]) and in data set [2] (setting [5]) was greater than 30 µM in each case.
In turn, `C=CCc1ccc(Oc2cc([C@@H](O)C=C)cc(OC)c2OC)c(OC)c1` [Compound 4, 1-[(7S)-hydroxy-8-propenyl]-3-[3′-methoxy-1′-(8′-propenyl)-phenoxy]-4,5-dimethoxybenzene] had a CC50 at 48 h in data set [1] greater than 200 µM. Further, the “SI: selectivity index (ratio CC50/IC50)” value in data set [2] was greater than 14.0. For the same molecule, the IC50 in data set [2] (setting [4]) is 14.5 µM; in data set [2] (setting [6]), 7.94 µM; in data set [2] (setting [5]), 14.3 ± 1.9 µM.
Take `C=CCc1ccc(Oc2cc(C(=O)C=C)cc(OC)c2O)c(OC)c1` [Compound 5, 4-hydroxy-5-methoxy-3-[3′-methoxy-1′-(8′-propenyl)phenoxy]-1-(7-oxo-8-propenyl)benzene]: in data set [1], the CC50 at 48 h was greater than 200 µM. Also, the IC50 was greater than 30 µM in data set [2] (setting [4]), 10 µM in data set [2] (setting [6]) and greater than 30 µM in data set [2] (setting [5]).
`C=CCc1ccc(Oc2cc(C(=O)C=C)cc(OC)c2OC)c(OC)c1` [Compound 6, 4,5-dimethoxy-3-[3′-methoxy-1′-(8′-propenyl)phenoxy]-1-(7-oxo-8-propenyl)benzene]: in data set [1], the CC50 at 48 h was greater than 200 µM. Also, the “SI: selectivity index (ratio CC50/IC50)” value in data set [2] is listed as greater than 7.6. Besides, the IC50 is 26.3 µM in data set [2] (setting [4]), 30.2 µM in data set [2] (setting [6]) and 26.3 ± 1.3 µM in data set [2] (setting [5]).
With `C=CCc1ccc(Oc2cc(C(=O)C=C)cc(OC)c2OC(C)=O)c(OC)c1` [Compound 7, 4-Acetoxy-5-methoxy-3-[3′-methoxy-1′-(8′-propenyl)phenoxy]-1-(7-oxo-8-propenyl)benzene], in data set [1], the CC50 at 48 h is greater than 200 µM. Moreover, the “pIC50 Experimental” value in data set [2] (-log IC50 against amastigotes, Table 1 and Figure 7) is recorded as 5.38. For the same molecule, the “SI: selectivity index (ratio CC50/IC50)” value in data set [2] was greater than 47.6. Also, the IC50 in data set [2] (setting [4]) is 4.27 µM; in data set [2] (Trypanosoma cruzi, Macrophage, Table S1, test set, supplement numbering, read-out: Exp. pIC50 (converted)) it was 9.55 µM; in data set [2] (setting [5]) it was 4.3 µM; in data set [2] (read-out: IC50, 50% inhibitory concentration against amastigote forms of T. cruzi, intracellular amastigotes in BALB/c peritoneal macrophages, 48 h, 30 to […]), 4.2 ± 1.1 µM.
For `C=CCc1ccc(Oc2cc(CC=C)cc(OC)c2OCCCCC)c(OC)c1` [Compound 8], the CC50 at 48 h in data set [1] is greater than 200 µM. The IC50 in data set [2] (setting [4]) and in data set [2] (setting [5]) was greater than 30 µM throughout.
Turning to `CCCOc1c(OC)cc(CCC)cc1Oc1ccc(CCC)cc1OC` [Compound 18], in the data set with NCTC cells-clone L929, the CC50 was greater than 200 µM. The IC50 in data set [3] was greater than 30 µM; in data set [2] (setting [4]), greater than 30 µM; in data set [2] (setting [6]), 87.1 µM.
For the molecule `CCCc1ccc(Oc2cc(CCC)cc(OC)c2OC)c(OC)c1` [Compound 22], the CC50 in the data set on NCTC cells-clone L929 was greater than 200 µM. The IC50 in data set [3] and in data set [2] (setting [4]) was greater than 30 µM in each case.
Regarding `COc1cc(CC2CO2)ccc1Oc1cc(CC2CO2)cc(OC)c1OC` (stereo not drawn) [Compound 25], the CC50 with NCTC cells-clone L929 is greater than 200 µM. For the same molecule, the IC50 in data set [3] and in data set [2] (setting [4]) was greater than 30 µM each time.
As to `COc1cc(CC(C)O)ccc1Oc1cc(CC(C)O)cc(OC)c1OC` (stereo not drawn) [Compound 31], the CC50 in the data set on NCTC cells-clone L929 was greater than 200 µM. Further, the IC50 in data set [3] is 13.3 ± 3.6 µM; in data set [2] (setting [4]), 13.2 µM; in data set [2] (setting [6]), 28.2 µM. For the same molecule, the “SI: selectivity index (ratio CC50/IC50)” value in data set [2] is greater than 15.0.
Take `C=CCc1cc(OC)cc(Oc2cc(CC=C)cc(OC)c2OS(=O)(=O)C(F)(F)F)c1` [Compound 33]: in the data set with NCTC cells-clone L929, the CC50 was greater than 200 µM. The values for the IC50 in data set [3], in data set [2] (setting [4]) and in data set [2] (setting [6]) were greater than 30 µM, greater than 30 µM and 4.27 µM, respectively.
The molecule `C=CCc1cc(OC)cc(Oc2ccc(CC=C)cc2OC)c1` [Compound 34] showed a CC50 at 48 h in data set [1] greater than 200 µM. In addition, the “SI: selectivity index (ratio CC50/IC50)” value in data set [2] is greater than 34.5. For the same molecule, the IC50 was 5.75 µM in data set [2] (setting [4]) and 5.8 ± 0.7 µM in data set [2] (setting [5]).
In the case of `CCCc1cc(OC)cc(Oc2ccc(CCC)cc2OC)c1` [Compound 35], in data set [1], the CC50 at 48 h was greater than 200 µM. Also, in data set [2], the “SI: selectivity index (ratio CC50/IC50)” value is greater than 18.3. Besides, the IC50 in data set [2] (setting [4]) is 11 µM; in data set [2] (setting [5]) it was 10.9 ± 6.5 µM.
As for `C=CCc1ccc(Oc2cc(CCC)cc(OC)c2O)c(OC)c1` [Compound 37], the CC50 in the data set with NCTC cells-clone L929 was 14.2 ± 0.1 µM. For the same molecule, the IC50 in data set [3] was 10.5 ± 8.3 µM; in data set [2] (setting [4]) it was 10.5 µM. Further, the “SI: selectivity index (ratio CC50/IC50)” value in data set [2] is recorded as 1.4.
For the molecule `C=CCc1cc(OC)c(OC)c(Oc2ccc(CCC)cc2OC)c1` [Compound 38], in the data set on NCTC cells-clone L929, the CC50 was greater than 200 µM. The IC50 is 11.7 ± 7 µM in data set [3] and 11.7 µM in data set [2] (setting [4]). Besides, in data set [2], the “SI: selectivity index (ratio CC50/IC50)” value is given as greater than 17.1.
As to `C=CCc1cc(OC)c(OCc2ccc(OC)cc2)c(Oc2ccc(CCC)cc2OC)c1` [Compound 40], the CC50 with NCTC cells-clone L929 was greater than 200 µM. Besides, the IC50 was 8.6 ± 2.1 µM in data set [3] and 8.51 µM in data set [2] (setting [4]). Also, the “SI: selectivity index (ratio CC50/IC50)” value in data set [2] is on record as greater than 23.3.
Consider `C=CCc1ccc(Oc2cc(CCC)cc(OC)c2OCc2ccc(OC)cc2)c(OC)c1` [Compound 41], for which the CC50 in the data set on NCTC cells-clone L929 was greater than 200 µM. For the same molecule, the results for the IC50 in data set [3] and in data set [2] (setting [4]) were 13.4 ± 5.4 µM and 13.5 µM, respectively. The “SI: selectivity index (ratio CC50/IC50)” value in data set [2] was greater than 14.9.
`C=CCc1ccc(Oc2cccc(OC)c2OC)c(OC)c1` [Compound 42]: in the data set on NCTC cells-clone L929, the CC50 is greater than 200 µM. Also, the figures for the IC50 in data set [3] and in data set [2] (setting [4]) were 25.7 ± 12.2 µM and 25.7 µM, respectively. The “SI: selectivity index (ratio CC50/IC50)” value in data set [2] is greater than 7.8.
As to `C=CCc1ccc(Oc2cc(CC=C)cc(OC)c2O)cc1` [Compound 45], the CC50 in the data set with NCTC cells-clone L929 is 123 ± 9.8 µM. Besides, the IC50 is 22.5 ± 18.8 µM in data set [3] and 22.4 µM in data set [2] (setting [4]). Moreover, the “SI: selectivity index (ratio CC50/IC50)” value in data set [2] was 5.5.
For the molecule `C=CCc1ccc(Oc2cc(CC=C)cc(OC)c2OCc2ccc(OC)cc2)cc1` [Compound 46], in the data set with NCTC cells-clone L929, the CC50 is greater than 200 µM. Besides, the figures for the IC50 in data set [3], in data set [2] (setting [4]) and in data set [2] (setting [6]) were 11 ± 2.3 µM, 11.5 µM and 11 µM, respectively. The “SI: selectivity index (ratio CC50/IC50)” value in data set [2] is recorded as greater than 18.2.
Take `C=CCc1cc(OC)c(OC)c(Oc2ccccc2OC)c1` [Compound 47]: in the data set on NCTC cells-clone L929, the CC50 is greater than 200 µM. Also, the IC50 in data set [3] and in data set [2] (setting [4]) was greater than 30 µM each time.
For the molecule `C=CCc1cc(OC)c(OCc2ccc(OC)cc2)c(Oc2ccccc2OC)c1` [Compound 48], in the data set with NCTC cells-clone L929, the CC50 was greater than 200 µM. Besides, the IC50 in data set [3] and in data set [2] (setting [4]) was greater than 30 µM throughout.
On to `C=CCOc1c(OC)cccc1Oc1ccc(CC=C)cc1OC` [Compound 49], for which, in the data set with NCTC cells-clone L929, the CC50 is greater than 200 µM. The IC50 in data set [3] and in data set [2] (setting [4]) was greater than 30 µM each time.

Values taken from paper PMC8306904, “Discovery of New Hits as Antitrypanosomal Agents by In Silico and In Vitro Assays Using Neolignan-Inspired Natural Products from Nectandra leucantha” (Molecules, 2021).
